Test results taken from patent US9138436B2, “Inhibitors of Bruton's tyrosine kinase” (PHARMACYCLICS LLC, priority 2011, dated 2015).

These molecules were tested against Btk (Homo sapiens, UniProt Q06187) (assay: Btk in vitro inhibitory activity, acellular kinase assay (TR-FRET)).
Assay type: biochemical
Protocol: Btk kinase activity is determined using a time-resolved fluorescence resonance energy transfer (TR-FRET) methodology. Measurements are performed in a reaction volume of 50 μL using 96-well assay plates. Kinase enzyme, inhibitor, ATP (at the Km for the kinase), and 1 μM peptide substrate (Biotin-AVLESEEELYSSARQ-NH2) are incubated in a reaction buffer composed of 20 mM Tris, 50 mM NaCl, MgCl2 (5-25 mM depending on the kinase), MnCl2 (0-10 mM), 1 mM DTT, 0.1 mM EDTA, 0.01% bovine serum albumin, 0.005% Tween-20, and 10% DMSO at pH 7.4 for one hour. The reaction is quenched by the addition of 1.2 equivalents of EDTA (relative to divalent cation) in 25 μL of 1× Lance buffer (Perkin-Elmer). Streptavidin-APC (Perkin-Elmer) and Eu-labeled p-Tyr100 antibody (Perkin-Elmer) in 1× Lance buffer are added in a 25 μL volume to give final concentrations of 100 nM and 2.5 nM, respectively, and the mixture is allowed to incubate for one hour. The TR-FRET signal is measured on a multimode plate reader with an excitation wavelength (λEx) of 330 nm and detection wavelengths (λEm) of 615 and 665 nm. Activity is determined by the ratio of the fluorescence at 665 nm to that at 615 nm. For each compound, enzyme activity is measured at various concentrations of compound. Negative control reactions are performed in the absence of inhibitor in replicates of six, and two no-enzyme controls were used to determine baseline fluorescence levels. Inhibition constants, Ki(app), are obtained using the program BatchKi (Kuzmic et al. (2000), Anal. Biochem. 286:45-50). IC50s are obtained according to the equation: IC50={Ki(app)/(1+[ATP]/Km^ATP)}+[E]total/2;
For all kinases, [ATP]=Km^ATP, [Btk]total=0.5 nM and [Lck]total=6 nM.

Sequence of Btk (Q06187 whole entry): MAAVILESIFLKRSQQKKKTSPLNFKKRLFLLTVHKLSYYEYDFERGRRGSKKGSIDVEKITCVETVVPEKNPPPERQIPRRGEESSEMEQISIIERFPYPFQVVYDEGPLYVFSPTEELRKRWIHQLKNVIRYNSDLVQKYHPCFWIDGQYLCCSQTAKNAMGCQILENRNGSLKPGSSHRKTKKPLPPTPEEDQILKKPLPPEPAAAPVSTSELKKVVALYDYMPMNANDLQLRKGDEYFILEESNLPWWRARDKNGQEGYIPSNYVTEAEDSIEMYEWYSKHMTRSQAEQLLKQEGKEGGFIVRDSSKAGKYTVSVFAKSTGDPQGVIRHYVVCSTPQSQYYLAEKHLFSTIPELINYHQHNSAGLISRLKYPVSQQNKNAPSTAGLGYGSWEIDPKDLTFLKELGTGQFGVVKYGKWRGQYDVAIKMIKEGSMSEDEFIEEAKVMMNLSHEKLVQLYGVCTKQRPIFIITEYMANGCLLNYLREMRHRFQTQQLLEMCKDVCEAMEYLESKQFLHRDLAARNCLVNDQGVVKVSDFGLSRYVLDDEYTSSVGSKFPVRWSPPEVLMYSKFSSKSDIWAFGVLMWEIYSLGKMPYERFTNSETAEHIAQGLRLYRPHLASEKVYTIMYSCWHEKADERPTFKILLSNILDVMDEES

IC50, < 100 nM:
CN1CCC(N(C)C/C=C/C(=O)N2CCC[C@@H](n3nc(-c4ccc(Oc5ccccc5)cc4)c4c(N)ncnc43)C2)CC1 [Example 2an, (R,E)-1-(3-(4-amino-3-(4-phenoxyphenyl)-1H-pyrazolo[3,4-d]pyrimidin-1-yl)piperidin-1-yl)-4-(methyl(1-methylpiperidin-4-yl)amino)but-2-en-1-one]
CN1CCC(NC/C=C/C(=O)N2CCC[C@@H](n3nc(-c4ccc(Oc5ccccc5)cc4)c4c(N)ncnc43)C2)CC1 [Example 2ao, (R,E)-1-(3-(4-amino-3-(4-phenoxyphenyl)-1H-pyrazolo[3,4-d]pyrimidin-1-yl)piperidin-1-yl)-4-(1-methylpiperidin-4-ylamino)but-2-en-1-one]
CCN(C/C=C/C(=O)N1CC[C@@H](n2nc(-c3ccc(Oc4ccccc4)cc3)c3c(N)ncnc32)C1)C1CCC1 [Example 2ap, (R,E)-1-(3-(4-amino-3-(4-phenoxyphenyl)-1H-pyrazolo[3,4-d]pyrimidin-1-yl)pyrrolidin-1-yl)-4-(cyclobutyl(ethyl)amino)but-2-en-1-one]
CC(C)N(C/C=C/C(=O)N1CC[C@@H](n2nc(-c3ccc(Oc4ccccc4)cc3)c3c(N)ncnc32)C1)C1CCC1 [Example 2aq, (R,E)-1-(3-(4-amino-3-(4-phenoxyphenyl)-1H-pyrazolo[3,4-d]pyrimidin-1-yl)pyrrolidin-1-yl)-4-(cyclobutyl(isopropyl)amino)but-2-en-1-one]
CN(C/C=C/C(=O)N1CC[C@@H](n2nc(-c3ccc(Oc4ccccc4)cc3)c3c(N)ncnc32)C1)[C@@H]1CCOC1 [Example 2b, (E)-1-((R)-3-(4-amino-3-(4-phenoxyphenyl)-1H-pyrazolo[3,4-d]pyrimidin-1-yl)pyrrolidin-1-yl)-4-(methyl((R)-tetrahydrofuran-3-yl)amino)but-2-en-1-one]
Nc1ncnc2c1c(-c1ccc(Oc3ccccc3)cc1)nn2[C@@H]1CCN(C(=O)/C=C/CN[C@@H]2CCOC2)C1 [Example 2c, (E)-1-((R)-3-(4-amino-3-(4-phenoxyphenyl)-1H-pyrazolo[3,4-d]pyrimidin-1-yl)pyrrolidin-1-yl)-4-((R)-tetrahydrofuran-3-ylamino)but-2-en-1-one]
CN(C/C=C/C(=O)N1CC[C@@H](n2nc(-c3ccc(Oc4ccccc4)cc3)c3c(N)ncnc32)C1)[C@H]1CCOC1 [Example 2d, (E)-1-((R)-3-(4-amino-3-(4-phenoxyphenyl)-1H-pyrazolo[3,4-d]pyrimidin-1-yl)pyrrolidin-1-yl)-4-(methyl((S)-tetrahydrofuran-3-yl)amino)but-2-en-1-one]
Nc1ncnc2c1c(-c1ccc(Oc3ccccc3)cc1)nn2[C@@H]1CCN(C(=O)/C=C/CN[C@H]2CCOC2)C1 [Example 2e, (E)-1-((R)-3-(4-amino-3-(4-phenoxyphenyl)-1H-pyrazolo[3,4-d]pyrimidin-1-yl)pyrrolidin-1-yl)-4-((S)-tetrahydrofuran-3-ylamino)but-2-en-1-one]
CN(C/C=C/C(=O)N1CC[C@@H](n2nc(-c3ccc(Oc4ccccc4)cc3)c3c(N)ncnc32)C1)C1COC1 [Example 2f, (R,E)-1-(3-(4-amino-3-(4-phenoxyphenyl)-1H-pyrazolo[3,4-d]pyrimidin-1-yl)pyrrolidin-1-yl)-4-(methyl(oxetan-3-yl)amino)but-2-en-1-one]
Nc1ncnc2c1c(-c1ccc(Oc3ccccc3)cc1)nn2[C@@H]1CCN(C(=O)/C=C/CNC2COC2)C1 [Example 2g, (R,E)-1-(3-(4-amino-3-(4-phenoxyphenyl)-1H-pyrazolo[3,4-d]pyrimidin-1-yl)pyrrolidin-1-yl)-4-(oxetan-3-ylamino)but-2-en-1-one]
CN(C/C=C/C(=O)N1CCC[C@@H](n2nc(-c3ccc(Oc4ccccc4)cc3)c3c(N)ncnc32)C1)[C@@H]1CCOC1 [Example 2h, (E)-1-((R)-3-(4-amino-3-(4-phenoxyphenyl)-1H-pyrazolo[3,4-d]pyrimidin-1-yl)piperidin-1-yl)-4-(methyl((R)-tetrahydrofuran-3-yl)amino)but-2-en-1-one]
Nc1ncnc2c1c(-c1ccc(Oc3ccccc3)cc1)nn2[C@@H]1CCCN(C(=O)/C=C/CN[C@@H]2CCOC2)C1 [Example 2i, (E)-1-((R)-3-(4-amino-3-(4-phenoxyphenyl)-1H-pyrazolo[3,4-d]pyrimidin-1-yl)piperidin-1-yl)-4-((R)-tetrahydrofuran-3-ylamino)but-2-en-1-one]
CN(C/C=C/C(=O)N1CCC[C@@H](n2nc(-c3ccc(Oc4ccccc4)cc3)c3c(N)ncnc32)C1)[C@H]1CCOC1 [Example 2j, (E)-1-((R)-3-(4-amino-3-(4-phenoxyphenyl)-1H-pyrazolo[3,4-d]pyrimidin-1-yl)piperidin-1-yl)-4-(methyl((S)-tetrahydrofuran-3-yl)amino)but-2-en-1-one]
Nc1ncnc2c1c(-c1ccc(Oc3ccccc3)cc1)nn2[C@@H]1CCCN(C(=O)/C=C/CN[C@H]2CCOC2)C1 [Example 2k, (E)-1-((R)-3-(4-amino-3-(4-phenoxyphenyl)-1H-pyrazolo[3,4-d]pyrimidin-1-yl)piperidin-1-yl)-4-((S)-tetrahydrofuran-3-ylamino)but-2-en-1-one]
CN(C/C=C/C(=O)N1CCC[C@@H](n2nc(-c3ccc(Oc4ccccc4)cc3)c3c(N)ncnc32)C1)C1COC1 [Example 2m, (R,E)-1-(3-(4-amino-3-(4-phenoxyphenyl)-1H-pyrazolo[3,4-d]pyrimidin-1-yl)piperidin-1-yl)-4-(methyl(oxetan-3-yl)amino)but-2-en-1-one]
Nc1ncnc2c1c(-c1ccc(Oc3ccccc3)cc1)nn2[C@@H]1CCCN(C(=O)/C=C/CNC2COC2)C1 [Example 2n, (R,E)-1-(3-(4-amino-3-(4-phenoxyphenyl)-1H-pyrazolo[3,4-d]pyrimidin-1-yl)piperidin-1-yl)-4-(oxetan-3-ylamino)but-2-en-1-one]
COCCN(C/C=C/C(=O)N1CC[C@@H](n2nc(-c3ccc(Oc4ccccc4)cc3)c3c(N)ncnc32)C1)C1CC1 [Example 2p, (R,E)-1-(3-(4-amino-3-(4-phenoxyphenyl)-1H-pyrazolo[3,4-d]pyrimidin-1-yl)pyrrolidin-1-yl)-4-(cyclopropyl(2-methoxyethyl)amino)but-2-en-1-one]
CC(C)N(C/C=C/C(=O)N1CC[C@@H](n2nc(-c3ccc(Oc4ccccc4)cc3)c3c(N)ncnc32)C1)C1CC1 [Example 2q, (R,E)-1-(3-(4-amino-3-(4-phenoxyphenyl)-1H-pyrazolo[3,4-d]pyrimidin-1-yl)pyrrolidin-1-yl)-4-(cyclopropyl(isopropyl)amino)but-2-en-1-one]
Nc1ncnc2c1c(-c1ccc(Oc3ccccc3)cc1)nn2[C@@H]1CCCN(C(=O)/C=C/CN(C2CC2)C2CC2)C1 [Example 2r, (R,E)-1-(3-(4-amino-3-(4-phenoxyphenyl)-1H-pyrazolo[3,4-d]pyrimidin-1-yl)piperidin-1-yl)-4-(dicyclopropylamino)but-2-en-1-one]
COCCN(C/C=C/C(=O)N1CCC[C@@H](n2nc(-c3ccc(Oc4ccccc4)cc3)c3c(N)ncnc32)C1)C1CC1 [Example 2s, (R,E)-1-(3-(4-amino-3-(4-phenoxyphenyl)-1H-pyrazolo[3,4-d]pyrimidin-1-yl)piperidin-1-yl)-4-(cyclopropyl(2-methoxyethyl)amino)but-2-en-1-one]
